Assay results taken from PubChem BioAssay AID1845200 (Molecular Pharmacology Branch, DTP, NCI, 2023).

System: ASPS-1 complex tumor spheroids, viability
Assay: Anticancer human tumor ASPS-1 cell line growth inhibition;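 further: spheroids exposed to agents for 7 days after 3 days of growth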;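 on viability, T/C: 100% = DMSO vehicle treated spheroids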
Settings: for IC50: curve of first compound; for viability, T/C: stronger effect = lower value; active means viability on the fitted dose curve at most 10% of control; inactive means the rest
Procedure, shortened: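 Complex spheroids of malignant cells with endothelial cells and mesenchymal stem cells; agents alone or combined, from near clinical Cmax (or 10 microM if unknown) down in half-log steps, 0.25% DMSO final.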

[1] = second compound 1 µM, first compound 0.0316 µM
[2] = second compound 1 µM, first compound 0.1 µM
[3] = second compound 1 µM, first compound 0.316 µM
[4] = second compound 1 µM, first compound 1 µM
[5] = second compound 1 µM, first compound 3.16 µM
[6] = second compound 1 µM, first compound 10 µM
[7] = second compound 3.16 µM, first compound 0.0316 µM
[8] = second compound 3.16 µM, first compound 0.1 µM
[9] = second compound 3.16 µM, first compound 0.316 µM
[10] = second compound 3.16 µM, first compound 1 µM
[11] = second compound 3.16 µM, first compound 3.16 µM
[12] = second compound 3.16 µM, first compound 10 µM
[13] = second compound 10 µM, first compound 0.0316 µM
[14] = second compound 10 µM, first compound 0.1 µM
[15] = second compound 10 µM, first compound 0.316 µM
[16] = second compound 10 µM, first compound 1 µM
[17] = second compound 10 µM, first compound 3.16 µM
[18] = second compound 10 µM, first compound 10 µM
[19] = second compound 31.6 µM, first compound 0.0316 µM
[20] = second compound 31.6 µM, first compound 0.1 µM
[21] = second compound 31.6 µM, first compound 0.316 µM
[22] = second compound 31.6 µM, first compound 1 µM
[23] = second compound 31.6 µM, first compound 3.16 µM
[24] = second compound 31.6 µM, first compound 10 µM
[25] = second compound 100 µM, first compound 0.0316 µM
[26] = second compound 100 µM, first compound 0.1 µM
[27] = second compound 100 µM, first compound 0.316 µM
[28] = second compound 100 µM, first compound 1 µM
[29] = second compound 100 µM, first compound 3.16 µM
[30] = second compound 100 µM, first compound 10 µM

CC(C)n1c(=O)n(C)c2cnc3cc(F)c(-c4ccc(OCCCN5CCCCC5)nc4)cc3c21 + Cn1nnc2c(C(N)=O)ncn2c1=O
inactive: viability, T/C [1] 106% | viability, T/C [2] 104% | viability, T/C [3] 102% | viability, T/C [4] 102% | viability, T/C [5] 93.4% | viability, T/C [6] 42.1% | viability, T/C [7] 102% | viability, T/C [8] 102% | viability, T/C [9] 103% | viability, T/C [10] 88.7% | viability, T/C [11] 82.4% | viability, T/C [12] 43% | viability, T/C [13] 91.4% | viability, T/C [14] 79.8% | viability, T/C [15] 83.5% | viability, T/C [16] 86.7% | viability, T/C [17] 42% | viability, T/C [18] 25.4% | viability, T/C [19] 81.1% | viability, T/C [20] 78.1% | viability, T/C [21] 77.7% | viability, T/C [22] 54.7% | viability, T/C [23] 39.3% | viability, T/C [24] 19.9% | viability, T/C [25] 74.5% | viability, T/C [26] 60.5% | viability, T/C [27] 56.1% | viability, T/C [28] 41.2% | viability, T/C [29] 24.4% | viability, T/C [30] 20.2%
2560 nM: IC50 (second compound 10 µM)
8140 nM: IC50 (second compound 3.16 µM)
8400 nM: IC50 (second compound 1 µM)
386 nM: IC50 (second compound 100 µM)
1580 nM: IC50 (second compound 31.6 µM)

COc1ccc([C@@H](O)c2cc(-c3ncnc4cc(N5CCOCC5)ccc34)c(F)cc2Cl)nn1 + Cn1nnc2c(C(N)=O)ncn2c1=O
6720 nM: IC50 (second compound 10 µM)
9750 nM: IC50 (second compound 1 µM)
1730 nM: IC50 (second compound 100 µM)
inactive: viability, T/C [1] 107% | viability, T/C [2] 103% | viability, T/C [3] 106% | viability, T/C [4] 101% | viability, T/C [5] 92% | viability, T/C [6] 48.4% | viability, T/C [7] 103% | viability, T/C [8] 102% | viability, T/C [9] 105% | viability, T/C [10] 99.8% | viability, T/C [11] 75.7% | viability, T/C [12] 53.1% | viability, T/C [13] 92% | viability, T/C [14] 94.9% | viability, T/C [15] 99% | viability, T/C [16] 79.2% | viability, T/C [17] 69.8% | viability, T/C [18] 40.3% | viability, T/C [19] 82.7% | viability, T/C [20] 83.7% | viability, T/C [21] 77.2% | viability, T/C [22] 67.7% | viability, T/C [23] 46.2% | viability, T/C [24] 33.8% | viability, T/C [25] 82.1% | viability, T/C [26] 67.6% | viability, T/C [27] 64.7% | viability, T/C [28] 57.1% | viability, T/C [29] 44.5% | viability, T/C [30] 33.2%
2610 nM: IC50 (second compound 31.6 µM)
> 10000 nM: IC50 (second compound 3.16 µM)
